Patent publication US20240199571A1, “THIOPHENE COMPOUND AND APPLICATION THEREOF” (MEDSHINE DISCOVERY INC., priority 2021, published 2024)
Where a name gives a salt, the structure may show the parent alone.

What was measured:
[1] = biological target: human LSD1 (Homo sapiens (Human), UniProt O60341); test: Experiment 1B: in vitro LSD1 enzyme activity, enzyme-coupled fluorescence (HRP/Amplex Red), H3(1-21)K4me2 peptide 10 μM (Reaction Biology); assay type: biochemical; conditions: histone H3(1-21)K4me2 peptide 10 μM
In short: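 Human LSD1 with 10 μM histone H3(1-21)K4me2 peptide; enzyme and substrate incubated 30 min before compound addition started the reaction. H2O2 detected via HRP/Amplex Red fluorescence (Ex/Em 535/590). IC50 from 10-point 3-fold dilutions starting at 10 μM.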

[2] = tested on: human small cell lung cancer NCI-H1417 cell subcutaneous xenograft tumor; test: Experiment 5: in vivo pharmacodynamic study, NCI-H1417 subcutaneous xenograft tumor in CB17-SCID mice; conditions: p.o.; for Mean tumor volume ± SEM (mm^3) (Day 28): day 28 after administration; for TGI (%): tumor volume at day 28
Description: Experiment 5: In Vivo Pharmacodynamic Study of Compounds on CB17-SCID Mouse Model of Human Small Cell Lung Cancer NCI-H1417 Cell Subcutaneous Xenograft Tumor
The purpose of this experiment was to evaluate the in vivo efficacy of the compounds of the present disclosure on CB17-SCID mouse model of human small cell lung cancer NCI-H1417 cell subcutaneous xenograft tumor.
5.2 Experimental Animals: • Species: mice • Strain: CB17-SCID mice • Week age and weight: 6-8 weeks old, 18 to 22 grams • Gender: Female • Supplier: Beijing Vital River Laboratory Animal Technology Co., Ltd.
Human lung cancer cells NCI-H1417 were cultured in vitro in suspension in RPMI 1640 medium with 10% fetal bovine serum, 100 U/mL penicillin, and 100 μg/mL streptomycin at 37° C. in a 5% CO2 cell culture incubator. Routine digestion and passage treatment were performed twice a week. When the number of cells reached the required number, the cells were counted and resuspended in PBS at a density of 10×10^6 cells/200 μL.
0.2 mL of NCI-H1417 tumor cells (containing 10×10^6 cells) suspension (PBS: matrix gel=1:1) was subcutaneously inoculated on the right back of mice, and in pharmacodynamic experiments, on the 16th day after cell inoculation, when the average tumor volume reached 86 mm^3, the subjects were randomly grouped and the administration started.
The experimental vehicle was 5% dimethyl sulfoxide/95% (10% Solutol) solution. Preparation method: 3.8 mL of […] was taken and added to 34.2 mL of double-distilled water, 2 mL of dimethyl sulfoxide was added thereto, and the mixture was mixed well. The test substance was dissolved with the vehicle, prepared as a homogeneous solution of a certain concentration, and stored at 4° C.
The experimental indicator was to examine whether tumor growth was inhibited, delayed, or cured. The tumor diameter was measured twice a week using vernier calipers. The calculation formula of tumor volume is V=0.5a×b^2, wherein a and b represent the long and short diameters of the tumor respectively.
The tumor inhibitory efficacy of compounds was evaluated by TGI (%). TGI (%) reflects the tumor growth inhibition rate. Calculation of TGI (%): TGI (%)=[1−(Average tumor volume at the end of administration in a certain treatment group−Average tumor volume at the beginning of administration in this treatment group)/(Average tumor volume at the end of treatment in the vehicle control group−Average tumor volume at the beginning of treatment in the vehicle control group)]×100%.

Structure (SMILES): CC(C)(CO)n1cc2cc(-c3sc(C(=O)N4CCC[C@@H](N)C4)cc3-c3ccc(C#N)c(F)c3)ccc2n1 [Hydrochloride of compound 87]
- IC50 [1]: 0.0248 µM
- Mean tumor volume ± SEM (mm^3) (Day 28) ([2]; 30 mg/kg, BID): 67 ± 5 mm^3
- TGI (%) ([2]; 30 mg/kg, BID): 105.17%

Structure (SMILES): CN[C@@H]1CCCN(C(=O)c2cc(-c3ccc(C#N)c(F)c3)c(-c3cc4nnn(CC(C)(C)O)c4c(F)c3F)s2)C1 [Hydrochloride of compound 98]
- IC50 [1]: 0.0126 µM
- Mean tumor volume ± SEM (mm^3) (Day 28) ([2]; 5 mg/kg, BID): 34 ± 1 mm^3
- TGI (%) ([2]; 5 mg/kg, BID): 114.20%
- Mean tumor volume ± SEM (mm^3) (Day 28) ([2]; 5 mg/kg, QD): 44 ± 2 mm^3
- TGI (%) ([2]; 5 mg/kg, QD): 111.58%
- Mean tumor volume ± SEM (mm^3) (Day 28) ([2]; 10 mg/kg, QD): 38 ± 3 mm^3
- TGI (%) ([2]; 10 mg/kg, QD): 113.35%
